Test results taken from patent US7772383B2, “Chemical PCR: Compositions for enhancing polynucleotide amplification reactions” (The Trustees of Princeton University, priority 2002, dated 2010).

Tests used:
[1] = test system: bovine brain glycolipid transfer protein (GTP) cDNA (660 bp); assay: PCR amplification of GTP cDNA with diol additives, standard cycling; format: biochemical; conditions: for Potency / Effective range: GTP; for Potency: 95° C. denaturing, 72° C. extension, normalized maximum densitometric volume of target band: 1,5-Pentanediol = 1; for Effective range: concentration interval over which densitometric volume of target band is at least 50% of maximum volume
Procedure: (§1) Amplification reactions were carried out under the following general conditions. Those skilled in the art will appreciate, however, that to the extent that the conditions (set forth in this application) required for specific experiments described in this example were inconsistent with the following general conditions, limited exceptions to the following general conditions were made The general conditions were as follows: 10 Mm Tris-HCl (Ph 8.8), 50 Mm KCl, 1.5 Mm MgCl2, 0.01% (w/v) gelatin, 0.2 Um primers, 0.06 ng/ul template, 0.2 Mm each Dntp, 0.04 U/ul Taq polymerase. The templates used were bovine brain N-WASP cDNA (1518 bp), a 996 bp segment of human myeloid leukocyte c-jun cDNA, a 511 bp segment of human prostate-specific membrane antigen (PSM) cDNA, and bovine brain glycolipid transfer protein (GTP) cDNA (660 bp). cDNA synthesis was carried out using the FIRST-STRAND® RT-PCR kit from Stratagene on the respective mRNAs purchased from Clontech. All amplification reactions for gene were carried out using a single master batch of cDNA. Taq polymerase and dNTPs were obtained from Stratagene. Primers were obtained from Genosys. Primer melting temperatures (Tms) were calculated using the Genosys oligo calculator program. The sequences of the primers were as follows.
(§2) Polymerase chain reactions for the N-WASP gene were conducted on a ROBOCYCLER® Gradient 40 thermal cycler from Stratagene using 100 ul solutions in 600 ul thin-walled tubes. For expediency, amplification of c-jun, PSM and GTP was carried out in a ROBOCYCLER® Gradient 96 thermal cycler from Stratagene using 50 ul solutions in 200 ul thin-walled tubes. Prior to Taq polymerase addition, a hotstart protocol was carried out that consisted of an initial cycle of 95° C. for 5 minutes (11) to ensure complete first-strand separation, followed by a cycle of 54° C. for 5 minutes. Amplifications were run for 30 cycles. […] Extension was done at 72° C. for periods depending on target length: 2 minutes for N-WASP, 1.5 minutes for c-jun and GTP, and 1 minute for PSM. Annealings were carried out either at fixed concentrations of additives using temperature gradients of 38-56° C. for N-WASP and 44-58° C. for the other targets, or at varying concentrations of additives using fixed temperatures of 41° C. for N-WASP, 50° C. for c-jun and PSM, and 54° C. for GTP.
(§3) Amplification products were analyzed by agarose gel electrophoresis on 0.8% agarose gels in which 20 ul reaction products were loaded with 4 ul loading buffer. Gels were stained with ethidium bromide, visualized on a UV transilluminator (Fisher), and documented by photography. Densitometric quantitation of amplification products was carried out using IMAGE SCANNER® and IMAGE MASTER® software from Amersham Pharmacia. Background correction was done using the software's rolling disc method.
Investigations into the PCR enhancing capabilities of diol cosolvents were carried out using GTP as the primary template. […] The standard protocol for annealing temperature and concentration gradient screening was again followed. […] These cosolvents were thus omitted from further studies. The optimal annealing temperatures for the remaining compounds were: ethylene glycol, 1,2-propanediol, 1,3-propanediol and cis-1,2-cyclopentanediol—58° C.; 1,2-butanediol—54° C.; 1,3-butanediol and 1,4-butanediol—[…]; 2,4-pentanediol, 1,5-pentanediol, 1,6-hexanediol and MPD—56° C.

[2] = test system: 996 bp segment of human myeloid leukocyte c-jun cDNA; assay: PCR amplification of c-jun cDNA with diol additives, standard cycling; format: biochemical; conditions: c-jun; for Effective range: concentration interval over which densitometric volume of target band is at least 50% of maximum volume; for Potency: normalized maximum densitometric volume of target band: 1,5-Pentanediol = 1
Procedure: as §1, §2, §3
With PSM, 1,2-propanediol, 1,2-butanediol, 1,3-butanediol, 1,4-butanediol and glycerol were tested; with c-jun, ethylene glycol and 1,3-propanediol were also tested in addition to these compounds. […] The following additive concentrations were tested using these annealing temperatures: 1,2-propanediol—0.5, 0.8, 1.1, 1.4, 1.7 and 2.0M; 1,2-butanediol—0.1, 0.3, 0.5, 0.6, 0.7 and 0.8M; 1,3-butanediol—0.1, 0.3, 0.5, 0.6, 0.9, 1.1, 1.2M; 1,4-butanediol—0.1 to 1.1M in 0.2M intervals; 1,5-pentanediol—0.1-0.6M in 0.1M intervals; glycerol—0.5 to 1.9M in 0.2M intervals, and 2.2M.

Row | Compound | Potency [1] | Effective range [1] | Effective range [2] | Potency [2] | GTP Potency ([1]; comparative standard 95/55/72° C., 0.3 M, best result under conventional conditions, normalization reference)
1 | CCC(O)CO (stereo not drawn) [1,2-Butanediol] | 0.57 | 0.08 to 0.62 M | 0.27 to 0.74 M | 0.64 | 
2 | OCCCCCO [1,5-Pentanediol] | 1.00 | 0.16 to 0.47 M | 0.17 to 0.45 M | 1.00 | 1.00
